We go through three compounds from patent US20050064462A1, “Methods, compositions, and kits for predicting the effect of compounds on hot flash symptoms” (priority 2003, published 2005).

The test system of one data set is N27. As to the kind of experiment: Differential gene expression in a cell following contact with reference compounds: N27. The class given is cell-based. Particulars: accession AI014169; cell expressing estrogen receptor or estrogen related receptor, after contact with compound. The source says:
(§1) The expression of any gene known by one of skill in the art to be associated with hot flash symptoms, without limitation, can be assessed in the methods of the invention. The present invention provides numerous such genes as described in detail, below. Further, additional genes that are associated with hot flash symptoms can readily be identified by one of skill in the art according to the disclosure of the present invention. For example, a cell that expresses the estrogen receptor or estrogen related receptor can be contacted with a reference compound known to affect hot flash symptoms. The overall expression of genes in the cell following contact with the reference compound can be compared to the overall expression of genes in a similar cell that has not been contacted with the reference compound.
(§2) The expression of such genes to identify genes that are differentially expressed following contact with a compound with a known effect on hot flash symptoms can be monitored by any convenient method known by one of skill in the art. Most advantageously, the expression of many genes, e.g., thousands of genes, is monitored at once using a high throughput method for assessing expression of genes in the presence and absence of compounds known to affect hot flash symptoms. […]

Data set [1] has as its system HMG-box containing protein 1. Nature of the data set: Differential gene expression in a cell following contact with reference compounds: HBP1. The class given is cell-based. Particulars: accession U09551; cell expressing estrogen receptor or estrogen related receptor, after contact with compound.
Excerpt: as §1, §2

Data set [2] relates to Protein Tyrosine Phosphatase BAD2. Nature of the data set: Differential gene expression in a cell following contact with reference compounds: BAD2. It counts as cell-based. Conditions: accession U02553; cell expressing estrogen receptor or estrogen related receptor, after contact with compound.
Excerpt: as §1, §2

The test system of the next data set is Annexin 1. Nature of the data set: Differential gene expression in a cell following contact with reference compounds: Annexin 1. Conditions: accession AI171962; cell expressing estrogen receptor or estrogen related receptor, after contact with compound. It counts as cell-based.
Excerpt: as §1, §2

A further data set concerns Protein Kinase C type I. Nature of the data set: Differential gene expression in a cell following contact with reference compounds: Protein Kinase C type I. It counts as cell-based. Conditions: accession M13707; cell expressing estrogen receptor or estrogen related receptor, after contact with compound.
Excerpt: as §1, §2

A further data set relates to D-binding protein. As to the kind of experiment: Differential gene expression in a cell following contact with reference compounds: D-binding protein. It counts as cell-based. Particulars: accession J03179; cell expressing estrogen receptor or estrogen related receptor, after contact with compound.
Excerpt: as §1, §2

The test system of a further data set is Type II Hexokinase. As to the kind of experiment: Differential gene expression in a cell following contact with reference compounds: Type II Hexokinase. It counts as cell-based. Particulars: accession D26393; cell expressing estrogen receptor or estrogen related receptor, after contact with compound.
Excerpt: as §1, §2

A further data set concerns hot flash symptoms. Conditions: cited from earlier work.
In data set [3] the test system is FE65 adaptor protein interacting with beta-amyloid precursor protein intracellular domain. As to the kind of experiment: Differential gene expression in a cell following contact with reference compounds: FE65. It counts as cell-based. Conditions: accession X60469; cell expressing estrogen receptor or estrogen related receptor, after contact with compound.
Excerpt: as §1, §2

For another data set, the system named is Prolactin. Nature of the data set: Differential gene expression in a cell following contact with reference compounds: Prolactin. It counts as cell-based. Conditions: accession AI175539; cell expressing estrogen receptor or estrogen related receptor, after contact with compound.
Excerpt: as §1, §2

Another data set concerns Interleukin-18. Nature of the data set: Differential gene expression in a cell following contact with reference compounds: Interleukin-18. It counts as cell-based. Particulars: accession AJ222813; cell expressing estrogen receptor or estrogen related receptor, after contact with compound.
Excerpt: as §1, §2

Data set [4] relates to Interleukin-1 β-converting enzyme-related protease CPP32. Nature of the data set: Differential gene expression in a cell following contact with reference compounds: CPP32. Conditions: accession U84410; cell expressing estrogen receptor or estrogen related receptor, after contact with compound. It counts as cell-based.
Excerpt: as §1, §2

The test system of data set [5] is Multi Drug Resistance Gene. As to the kind of experiment: Differential gene expression in a cell following contact with reference compounds: Multi Drug Resistance Gene. The class given is cell-based. Particulars: accession M81855; cell expressing estrogen receptor or estrogen related receptor, after contact with compound.
Excerpt: as §1, §2

The test system of data set [6] is Ribonucleoside Reductase Nuclear Receptor. As to the kind of experiment: Differential gene expression in a cell following contact with reference compounds: RNR-1. It counts as cell-based. Particulars: accession L08595; cell expressing estrogen receptor or estrogen related receptor, after contact with compound.
Excerpt: as §1, §2

Another data set relates to EST196325. Nature of the data set: Differential gene expression in a cell following contact with reference compounds: EST196325. The class given is cell-based. Particulars: accession AA892522; cell expressing estrogen receptor or estrogen related receptor, after contact with compound.
Excerpt: as §1, §2

A further data set deals with EST208064. As to the kind of experiment: Differential gene expression in a cell following contact with reference compounds: EST208064. The class given is cell-based. Conditions: accession AI013389; cell expressing estrogen receptor or estrogen related receptor, after contact with compound.
Excerpt: as §1, §2

The next data set has as its system 2-alpha-1 globin. As to the kind of experiment: Differential gene expression in a cell following contact with reference compounds: 2-alpha-1 globin. Particulars: accession X56325; cell expressing estrogen receptor or estrogen related receptor, after contact with compound. It counts as cell-based.
Excerpt: as §1, §2

Another data set has as its system ARL gene 4. As to the kind of experiment: Differential gene expression in a cell following contact with reference compounds: ARL gene 4. It counts as cell-based. Conditions: accession X77235; cell expressing estrogen receptor or estrogen related receptor, after contact with compound.
Excerpt: as §1, §2

The subject of the next data set is Calpain. Nature of the data set: Differential gene expression in a cell following contact with reference compounds: Calpain. The class given is cell-based. Conditions: accession D14478; cell expressing estrogen receptor or estrogen related receptor, after contact with compound.
Excerpt: as §1, §2

A further data set has as its system Activin Beta E. As to the kind of experiment: Differential gene expression in a cell following contact with reference compounds: Activin Beta E. Conditions: accession AF089825; cell expressing estrogen receptor or estrogen related receptor, after contact with compound. The class given is cell-based.
Excerpt: as §1, §2

Data set [7] has as its system Argininosuccinate Synthetase. Nature of the data set: Differential gene expression in a cell following contact with reference compounds: Argininosuccinate Synthetase. The class given is cell-based. Particulars: accession X12459; cell expressing estrogen receptor or estrogen related receptor, after contact with compound.
Excerpt: as §1, §2

For the next data set, the system named is Parvalbumin. As to the kind of experiment: Differential gene expression in a cell following contact with reference compounds: Parvalbumin. Conditions: accession AF022935; cell expressing estrogen receptor or estrogen related receptor, after contact with compound. It counts as cell-based.
Excerpt: as §1, §2

“Also recorded” adds a separate entry of the source.

For the compound 4-hydroxy tamoxifen, the “Effect on Expression of N27 (EST 207724)” value with N27 is “Upregulated”. In addition, the “Effect on Expression of HMG-box containing protein 1 (HBP1)” value in [1] was “Upregulated”. In [2], the “Effect on Expression of Protein Tyrosine Phosphatase BAD2” value was “downregulation”. The “Effect on Expression of Annexin 1 (EST 21795)” value in the data set with Annexin 1 is listed as “Upregulated”. Also, the “Effect on Expression of Protein Kinase C type I (PKC type I)” value with Protein Kinase C type I was “Upregulated”. Moreover, the “Effect on Expression of D-binding protein” value with D-binding protein is listed as “Upregulated”. Besides, in the data set with Type II Hexokinase, the “Effect on Expression of Type II Hexokinase (HKII)” value is recorded as “downregulation”. Also, the “known effect on the incidence of hot flash symptoms” value in the data set on hot flash symptoms (when administered to a subject) was “increasing effect on hot flash symptoms; also recorded: increase the incidence of hot flash symptoms”.

Take `O=C(c1ccc(OCCN2CCCCC2)cc1)c1c(-c2ccc(O)cc2)sc2cc(O)ccc12` [Raloxifene, raloxifene]: the “Effect on Expression of N27 (EST 207724)” value with N27 is “Upregulated”. For the same compound, the “Effect on Expression of HMG-box containing protein 1 (HBP1)” value in data set [1] is reported as “Upregulated”. Besides, the “Effect on Expression of Annexin 1 (EST 21795)” value in the data set on Annexin 1 is recorded as “Upregulated”. Further, the “Effect on Expression of Protein Kinase C type I (PKC type I)” value in the data set on Protein Kinase C type I was “Upregulated”. In addition, the “Effect on Expression of FE65 adaptor protein interacting with beta-amyloid precursor protein intracellular domain (FE65)” value in [3] is on record as “Upregulated”. In addition, the “Effect on Expression of D-binding protein” value with D-binding protein is “Upregulated”. In addition, the “subjects experiencing hot flash symptoms of sufficient severity to discontinue therapy” value with hot flash symptoms (administered in the treatment of osteoporosis) is listed as “approximately 11%”.

In the case of `C#C[C@]1(O)CC[C@H]2[C@@H]3[C@H](C)CC4=C(CCC(=O)C4)[C@H]3CC[C@@]21C` [Tibolone, tibolone], the “Effect on Expression of Prolactin” value in the data set on Prolactin is on record as “Upregulated”. In addition, the “Effect on Expression of Interleukin-18 (IL-18)” value in the data set on Interleukin-18 is “Upregulated”. The “Effect on Expression of Interleukin-1 β-converting enzyme-related protease CPP32” value in data set [4] is listed as “Upregulated”. Moreover, the “Effect on Expression of Multi Drug Resistance Gene (MDR)” value in data set [5] is recorded as “Upregulated”. In data set [2], the “Effect on Expression of Protein Tyrosine Phosphatase BAD2” value is on record as “Upregulated”. Also, the “Effect on Expression of Ribonucleoside Reductase Nuclear Receptor (RNR-1)” value in data set [6] was “Upregulated”. Further, the “Effect on Expression of EST196325” value with EST196325 is on record as “Upregulated”. Also, the “Effect on Expression of EST208064” value in the data set with EST208064 was “Upregulated”. For the same compound, the “Effect on Expression of 2-alpha-1 globin” value in the data set on 2-alpha-1 globin is listed as “Upregulated”. Further, the “Effect on Expression of ARL gene 4” value in the data set on ARL gene 4 is reported as “Upregulated”. Moreover, in the data set with Type II Hexokinase, the “Effect on Expression of Type II Hexokinase (HKII)” value is on record as “Upregulated”. Besides, the “Effect on Expression of Calpain” value in the data set with Calpain is on record as “Upregulated”. The “Effect on Expression of Activin Beta E” value with Activin Beta E was “Upregulated”. The “Effect on Expression of Argininosuccinate Synthetase” value in data set [7] was “Upregulated”. In addition, in the data set on Parvalbumin, the “Effect on Expression of Parvalbumin” value is recorded as “Upregulated”.
